{
  "source": "patent US11311560B2",
  "about": "“Cyclic plasmenylethanolamines” (MED-LIFE DISCOVERIES LP, priority 2017, dated 2022)",
  "key": {"[1]": {"system": "Pex7 homozygous hypomorphic animals (Pex7^neo/neo)", "assay": "Sub-chronic (9 weeks) dosing with PPI-1040: plasmalogen levels in plasma, liver, lung", "format": "in vivo, mouse", "conditions": "89.7 mg/Kg intraperitoneal, 3 doses per week", "description": "Pex7 homozygous hypomorphic animals)(Pex7^neo/neo) were used as a model of rhizomelic chondrodysplasia punctata to further test the ability of PPI-1040 to augment plasmalogen levels in a deficient system, following 9 weeks of sub-chronic dosing. PPI-1040 was stored in a sealed ampoule in solution with dichloromethane under argon gas until immediately before use. At time of treatment the ampoule was opened and dichloromethane was evaporated off under nitrogen gas for 10 minutes. Neobee M-5 was then added and the solution vortexed to generate a 22.4 mg/mL formulation. Animals were dosed via intraperitoneal injections with doses adjusted by weight to ensure an 89.7 mg/Kg dose to each animal. Animals were sacrificed following 9 weeks of treatment with 3 doses administered per week (Monday, Wednesday and Friday). Blood samples were collected in EDTA tubes and then spun down in a clinical centrifuge. Plasma samples were stored at −80° C. until thawed for analysis. Tissue samples were harvested and flash frozen in liquid nitrogen and then stored at −80° C. All tissue samples were homogenized using liquid nitrogen, generating a fine powder. Extraction and plasmalogen analysis by LC-MS/MS was carried out as described above."}, "[2]": {"assay": "In vitro acid stability (pH 1-5, one hour, FI-MS/MS)", "format": "physicochemical", "description": "To test the ability of the vinyl ether in PPI-1040 to withstand the acidic nature of the stomach the compound was exposed to a range of acid strengths (pH 1-5). The stability of the vinyl bond was tested by exposing PPI-1040 (formulated as indicated above) to a pH range from 1-5. The pH solutions were made by serial 10-fold dilutions of 1M HCL in HPLC grade water until pH 4 is reached. Pure HPLC grade water was used as the control solution. The final dilution was completed by added a 20 μl aliquot to 200 μl of the PPI-1040 formulation resulting in a pH range from 1-5 (each condition was tested in triplicate). The mixture was vortexed at room temperature for one hour. Following the one hour incubation each solution was re-suspended in ethyl acetate to obtain 10 μl/ml solution which was analyzed using flow injection tandem mass spectrometry (FI-MS/MS) on a API4000™ mass spectrometer (Applied Biosystems) coupled with Agilent 1100 HPLC pump and auto sampler."}, "Pex7 hypomorph/null mice": {"system": "Pex7 hypomorph/null mice", "assay": "4 weeks oral treatment of Pex7 hypomorph/null animals: plasmalogen levels in plasma and tissues", "format": "in vivo, mouse", "conditions": "50 mg/kg oral gavage, 5 days per week", "text": "The Pex7 hypomorph/null model is a hypomorphic (B6;129S6-Pex7^tm2.3Brav/s9) mouse model on a mixed background (C57BL/6NCrl and 129S6/SvEvTac). The hypomorphic allele in Pex7 hypomorph/null was generated by inserting an inverse neo cassette into intron 2 and lox P sites surrounding exon 3. The Pex7 null allele was generated using (B6.C-Tg(cmv-cre)1Cgn/J) mouse. The Pex7 hypomorph/null mouse model has 90% survival, 0.016-0.257% of wild type Pex7 mRNA levels and 20-30% plasmalogen levels Pex7 hypomoprh/null mice (3-4 months); and wild-type animals, males and females included in treatments and behavioral tests. Pex7 hypomorph/null mice were randomly assigned, after a baseline open field test, into 3 treatment groups: PPI-1040, PPI-1011, and vehicle controls, n=6 mice per group). PPI-1011 or PPI-1040 at 50 mg/kg was given by oral gavage 5 days per week (Monday-Friday) for 4 weeks. During the treatment period, animals were weighed weekly and observed for signs of distress. The open field test was performed at the end of treatment. To avoid selection bias, data analysis was performed only at the study end. Animals were sacrificed after a 24-hour post the last dose.\nTissue samples frozen by submersion in liquid nitrogen were homogenized using the Covaris Cryoprep resulting in a fine powder. The powder was then aliquoted using anti-static polypropylene disposable milligram scoops (TWD Tradewinds) resulting in 4-6 mg of tissue per 1.4 ml Thermo matrix tubes. Weights were recorded and metabolite levels were normalized per mg of tissue. HPLC grade water (50 μl) was added into each tube and samples were snap frozen in liquid nitrogen and then stored at −80° C. until extraction. On the day of the extraction, tissue samples were thawed to room temperate and sonicated for 15 mins in an ice bath before mixing at 2000 rpm for a 5 minute and then adding 600 μL of ethyl acetate. Lipids were extracted into ethyl acetate by mixing at 1750 rpm for 1 hr followed by a 10 min centrifugation at 3500 rpm to obtain a clear ethyl acetate layer. Tissue lipid extracts were diluted into an ethyl acetate stock (brain regions diluted 1:10, peripheral tissues 1:5) containing labeled internal standard [^13C-PlsEtn (C37^13C6H74NO7P). Water (40 μL) was added to the diluted extracts and samples were stirred at 1500 rpm for 1 hr followed by a 2 min centrifugation at 3500 rpm.\nPlasma extraction was performed on 20 μL aliquots in 1.4 ml Thermo matrix tubes. Lipids were extracted by adding HPLC grade water (50 μl) and ethyl acetate containing labeled internal standard [^13C-PlsEtn (C37^13C6H74NO7P) at 0.2 μg/mL (500 μL) to each plasma sample and then mixing at 1750 rpm for 1 hr followed by a 2 min centrifugation at 3500 rpm for phase separation.\nA 100 μL aliquot of the ethyl acetate layer was analyzed using FI-MS/MS on a API4000™ mass spectrometer (Applied Biosystems) coupled with Agilent 1100 HPLC pump and auto sampler. Each transition was scanned for 50 ms with a total acquisition time per sample of 2 min. ethyl acetate:methanol:water ratio of 80:15:5 at a flow rate of 600 μL/min was used as the mobile phase. All standards and stable isotopes used were >95% pure and manufactured by Med-Life Discoveries LP. All the solvents used above were HPLC grade. All samples were analyzed in triplicate to control for any variation resulting from instrument variability. Stable isotope ratios for each analyte were calculated for all tissue and plasma samples (Table 2)."}},
  "note": "“And” between values parts separate entries of the source, which are not always exact repeats. Identical values can stand only once. “Also recorded” adds a separate entry of the source.",
  "data": [
    {"smiles": "CC/C=C\\C/C=C\\C/C=C\\C/C=C\\C/C=C\\C/C=C\\CCC(=O)OC(CO/C=C\\CCCCCCCCCCCCCC)COP1(=O)NCCO1", "note": "(stereo not shown) [PPI-1040, 1-(((Z)-hexadec-1-en-1-yl)oxy)-3-((2-oxido-1,3,2-oxazaphospholidin-2-yl)oxy)propan-2-yl (4Z,7Z,10Z,13Z,16Z,19Z)-docosa-4,7,10,13,16,19-hexaenoate]", "values": [
      {"measurement": "16:0 plasmalogen pool in serum (FIG. 5: plasma)", "setting": "[1]", "result": "elevated to levels significantly above control"},
      {"measurement": "liver levels of the target plasmalogen (16:0/22:6)", "setting": "[1]", "result": "elevated to above control levels"},
      {"measurement": "liver total 16:0 plasmalogen pool", "setting": "[1]", "result": "elevated to above control levels"},
      {"measurement": "lung levels of the target plasmalogen (16:0/22:6)", "setting": "[1]", "result": "elevated to control levels"},
      {"measurement": "lung total 16:0 plasmalogen pool", "setting": "[1]", "result": "elevated to control levels"},
      {"measurement": "target 16:0/22:6 ethanolamine plasmalogen in serum (FIG. 5: plasma)", "setting": "[1]", "result": "elevated to levels significantly higher than control"},
      {"measurement": "level of the cyclized (closed ring) form after incubation", "setting": "[2]; aqueous control and pH 1-5, one hour, room temperature", "result": "almost undetectable in all samples; also recorded: minimal intact PPI-1040 being observed"},
      {"measurement": "cleavage of the sn-1 vinyl-ether bond (loss of sn-1 group)", "setting": "[2]; control and pH 3-5, one hour", "result": "minimal loss of the sn-1 group"},
      {"measurement": "cleavage of the sn-1 vinyl-ether bond (loss of sn-1 group)", "setting": "[2]; pH 1, one hour", "result": "overall degradation of the molecule; also recorded: largely degraded"},
      {"measurement": "stability of open ring form (PlsEtn 16:0/22:6)", "setting": "[2]; pH 1, one hour", "result": "very little being detected"},
      {"measurement": "cleavage of the sn-1 vinyl-ether bond (loss of sn-1 group)", "setting": "[2]; pH 2, one hour", "result": "cleavage of the vinyl group is prevalent; also recorded: observed beginning at pH2"},
      {"measurement": "stability of open ring form (PlsEtn 16:0/22:6)", "setting": "[2]; pH 2, one hour", "result": "slight reduction"},
      {"measurement": "cerebellum tissue plasmalogen levels", "setting": "Pex7 hypomorph/null mice", "result": "did not show augmentation"},
      {"measurement": "cortical tissue plasmalogen levels", "setting": "Pex7 hypomorph/null mice", "result": "did not show augmentation"},
      {"measurement": "kidney plasmalogen levels", "setting": "Pex7 hypomorph/null mice", "result": "did not display a clear augmentation in any plasmalogen species; also recorded: did not display a significant level of augmentation in any plasmalogen species"},
      {"measurement": "liver plasmalogen levels", "setting": "Pex7 hypomorph/null mice", "result": "increases in 16:0/18:1, 16:0/18:2 and 16:0/22:6 species reaching statistical significance and 16:0/18:1. 16:0/18:2"},
      {"measurement": "lung plasmalogen levels", "setting": "Pex7 hypomorph/null mice", "result": "did not display a clear augmentation in any plasmalogen species; also recorded: did not display a significant level of augmentation in any plasmalogen species"},
      {"measurement": "plasma level of the target 16:0/22:6 plasmalogen", "setting": "Pex7 hypomorph/null mice", "result": "normalizing the levels of the target 16:0/22:6 plasmalogen"},
      {"measurement": "plasma levels of other 16:0 plasmalogens (re-organization at sn-2)", "setting": "Pex7 hypomorph/null mice", "result": "increases in all measured 16:0 plasmalogens with the exception of 16:0/22:4; also recorded: increases in all 16:0 plasmalogens measured except 16:0/22:4"},
      {"measurement": "plasma plasmalogen levels (all species measured)", "setting": "Pex7 hypomorph/null mice", "result": "able to augment plasmalogen levels; also recorded: did effectively augment plasmalogen levels"},
      {"measurement": "plasma plasmalogens containing 18:0 and 18:1 at sn-1", "setting": "Pex7 hypomorph/null mice", "result": "no augmentation was observed in any of those species"},
      {"measurement": "plasmalogen levels in tissues (peripheral and brain)", "setting": "Pex7 hypomorph/null mice", "result": "augmentation observed in the liver, skeletal muscle and small intestine"},
      {"measurement": "skeletal muscle plasmalogen levels", "setting": "Pex7 hypomorph/null mice", "result": "16:0/20:5, 16:0/22:6 and total 16:0 plasmalogen pool levels statistically increased"},
      {"measurement": "small intestine plasmalogen levels", "setting": "Pex7 hypomorph/null mice", "result": "16:0/18:1 and 16:0/18:2 species reaching a statistically significant increase and only 16:0/18:1 and 16:0/18:2 reached significance"},
      {"measurement": "vinyl-acyl and alkyl-acyl glycerol levels", "setting": "Pex7 hypomorph/null mice", "result": "None of the alkyl-acyl or vinyl-acyl glycerol species measured were increased"}
    ]}
  ]
}
